Data as given in patent publication US20220233512A1, “INHIBITING AN IMMUNE RESPONSE MEDIATED BY ONE OR MORE OF TLR2, RAGE, CCR5, CXCR4 AND CD4” (priority 2020, published 2022).

Target: T1, mu opiate receptor (MOR) (Rattus norvegicus, UniProt P33535)
T1 construct: from tissue; host or cells: striatum (membrane preparation)
Test: MOR agonist activity using [35S]GTPgS binding assay in striatal membranes
Type: biochemical
Procedure: To assess the mu opiate receptor (MOR) agonist activity of positive compounds from the FLNA screening, compounds were tested in a [^35S]GTPgS binding assay using striatal membranes. […] This assay measures a functional consequence of receptor occupancy at one of the earliest receptor-mediated events. The assay permits for traditional pharmacological parameters of potency, efficacy and antagonist affinity, with the advantage that agonist measures are not subjected to amplification or other modulation that may occur when analyzing parameters further downstream of the receptor.
Thus, striatal tissue was homogenized in 10 volumes of ice cold 25 mM HEPES buffer, pH 7.4, which contained 1 mM EGTA, 100 mM sucrose, 50 mg/ml leupeptin, 0.04 mM PMSF, 2 mg/ml soybean trypsin inhibitor and 0.2% 2-mercaptoethanol. The homogenates were centrifuged at 800×g for 5 minutes and the supernatants were centrifuged at 49,000×g for 20 minutes. The resulting pellets were suspended in 10 volume of reaction buffer, which contained 25 mM HEPES, pH 7.5, 100 mM NaCl, 50 mg/ml leupeptin, 2 mg/ml soybean trypsin inhibitor, 0.04 mM PMSF and 0.02% […].
The resultant striatal membrane preparation (200 mg) was admixed and maintained (incubated) at 30° C. for 5 minutes in reaction buffer as above that additionally contained 1 mM MgCl2 and 0.5 nM [^35S]GTPgS (0.1 mCi/assay, PerkinElmer Life and Analytical Sciences) in a total volume of 250 ml and continued for 5 minutes in the absence or presence of 0.1-10 mM of an assayed compound of interest. The reaction was terminated by dilution with 750 ml of ice-cold reaction buffer that contained 20 mM MgCl2 and 1 mM EGTA and immediate centrifugation at 16,000×g for 5 minutes.
The resulting pellet was solubilized by sonicating for 10 seconds in 0.5 ml of immunoprecipitation buffer containing 0.5% digitonin, 0.2% sodium cholate and 0.5% NP-40. Normal rabbit serum (1 ml) was added to 1 ml of lysate and incubated at 25° C. for 30 minutes. Nonspecific immune complexes were removed by incubation with 25 ml of protein A/G-conjugated agarose beads at 25° C. for 30 minutes followed by centrifugation at 5,000×g at 4° C. for 5 minutes. The supernatant was divided and separately incubated at 25° C. for 30 minutes with antibodies raised against Gao proteins (1:1,000 dilutions).
The immunocomplexes so formed were collected by incubation at 25° C. for 30 minutes with 40 ml of agarose-conjugated protein A/G beads and centrifugation at 5,000×g at 4° C. for 5 minutes. The pellet was washed and suspended in buffer containing 50 mM Tris-HCl, pH 8.0, and 1% NP-40. The radioactivity in the suspension was determined by liquid scintillation spectrometry. […] DAMGO (1 or 10 mM) was used as a positive control.

[1] = 0.1 μM compound as agonist, Series C-1 table
[2] = 1 μM compound as agonist, Series C-1 table
[3] = 0.1 μM compound as agonist, Series C-2 table
[4] = 1 μM compound as agonist, Series C-2 table

T1 sequence (P33535 whole entry): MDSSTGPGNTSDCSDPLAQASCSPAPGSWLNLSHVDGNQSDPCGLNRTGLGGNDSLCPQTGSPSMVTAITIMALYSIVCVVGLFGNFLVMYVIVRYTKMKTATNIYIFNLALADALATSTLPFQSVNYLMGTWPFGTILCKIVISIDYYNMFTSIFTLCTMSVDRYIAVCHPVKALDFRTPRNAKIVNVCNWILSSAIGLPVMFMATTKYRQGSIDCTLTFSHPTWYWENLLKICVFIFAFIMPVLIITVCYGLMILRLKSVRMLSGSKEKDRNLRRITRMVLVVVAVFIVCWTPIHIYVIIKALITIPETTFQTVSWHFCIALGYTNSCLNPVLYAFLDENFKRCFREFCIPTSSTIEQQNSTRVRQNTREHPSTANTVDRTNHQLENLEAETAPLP

| SMILES | MOR agonist activity ([35S]GTPgS binding to Gao) [1] [%] | MOR agonist activity ([35S]GTPgS binding to Gao) (1 μM + BFNA, Series C-1 table) [%] | MOR agonist activity ([35S]GTPgS binding to Gao) [2] [%] | MOR agonist activity ([35S]GTPgS binding to Gao) [3] [%] | MOR agonist activity ([35S]GTPgS binding to Gao) (1 μM + BFNA, Series C-2 table) [%] | MOR agonist activity ([35S]GTPgS binding to Gao) [4] [%] |
| --- | --- | --- | --- | --- | --- | --- |
| COC(=O)c1ccc(S(=O)(=O)N2CCC3(CC2)OCCN3S(=O)(=O)c2ccc(C(=O)OC)cc2)cc1 [Compound C0028] | 93.9 | 78.4 | 132.4 | – | – | – |
| O=S(=O)(c1ccc(F)cc1)N1CCC2(CC1)OCCN2S(=O)(=O)c1ccc(F)cc1 [Compound C0029] | 175.4 | 16.6 | 308.8 | – | – | – |
| CCCCc1ccc(S(=O)(=O)N2CCC3(CC2)OCCN3S(=O)(=O)c2ccc(CCCC)cc2)cc1 [Compound C0030] | 150.3 | 95.0 | 226.8 | – | – | – |
| O=C(c1ccc([N+](=O)[O-])cc1)N1CCC2(CC1)OCCN2C(=O)c1ccc([N+](=O)[O-])cc1 [Compound C0032] | 145.4 | 80.9 | 202.0 | – | – | – |
| O=C(c1ccc([N+](=O)[O-])cc1)N1CCC2(CC1)OCCN2S(=O)(=O)c1ccc([N+](=O)[O-])cc1 [Compound C0033] | 134.5 | 76.6 | 186.4 | – | – | – |
| NS(=O)(=O)c1ccc(S(=O)(=O)N2CCC3(CC2)OCCN3S(=O)(=O)c2ccc(S(N)(=O)=O)cc2)cc1 [Compound C0034] | 103.6 | 80.1 | 167.9 | – | – | – |
| O=[N+]([O-])c1ccc(S(=O)(=O)N2CCC3(CC2)NCCO3)cc1 [Compound C0040] | – | – | – | 145.8 | 90.4 | 308.3 |
| COc1ccc(NC(=O)N2CCC3(CC2)OCCN3S(=O)(=O)c2ccc(OC)cc2)cc1 [Compound C0041] | 186.1 | 95.5 | 244.4 | – | – | – |
| O=C(OCc1ccccc1)c1ccc(S(=O)(=O)N2CCC3(CC2)OCCN3S(=O)(=O)c2ccc(C(=O)OCc3ccccc3)cc2)cc1 [Compound C0042] | 167.1 | 110.6 | 260.9 | – | – | – |
| COc1ccc(S(=O)(=O)N2CCOC23CCN(C(=O)OC(C)(C)C)CC3)cc1 [Compound C0043] | – | – | – | 175.4 | 83.3 | 242.6 |
| O=[N+]([O-])c1ccc(S(=O)(=O)N2CCC3(CC2)NCCS3)cc1 [Compound C0044] | – | – | – | 173.7 | 59.1 | 280.1 |
| O=[N+]([O-])c1ccc(S(=O)(=O)N2CCC3(CC2)NCCCO3)cc1 [Compound C0045] | – | – | – | 149.2 | 105.3 | 238.8 |
| CC(=O)c1ccc(S(=O)(=O)N2CCOC23CCNCC3)cc1 [Compound C0046] | – | – | – | 286.2 | 156.8 | 492.9 |
| COc1ccc(S(=O)(=O)N2CCOC23CCN(S(=O)(=O)c2ccc(C(C)=O)cc2)CC3)cc1 [Compound C0047] | 142.2 | 80.1 | 206.1 | – | – | – |
| COc1ccc(S(=O)(=O)N2CCC3(CC2)OCCN3S(=O)(=O)c2ccc(C(C)=O)cc2)cc1 [Compound C0048] | 209.1 | 89.9 | 245.3 | – | – | – |
